Source: patent US11357749B2, “Methods for treating neutropenia” (Enzychem Lifesciences Corporation, priority 2014, dated 2022)

Columns and labels:
ERK1/2 = ERK1/2 phosphorylation, western blot in IgE-antigen stimulated RBL-2H3 cells; type: cell-based; conditions: PLAG pre-incubated RBL-2H3 cells, IgE-antigen complex stimulation
Description: Dephosphorylation of p38 MAPK and ERK1/2 in PLAG-treated RBL-2H3 cells is determined by western blot analysis using anti-phospho-p38 and anti-phospho-ERK1/2 respectively. To activate the p38 and ERK1/2 in RBL-2H3 cells, the cells are sensitized with 50 ng/mL of anti-DNP-IgE overnight. After washing with PBS three times, 20 ng/ml of DNP-HSA is added. Each cell lysate for western blot is prepared in the PLAG-treated RBL-2H3 cells in a dose-dependent manner and incubated for the same time (15 min). β-actin is used as internal controls. ERK1/2 and p38 phosphorylation start immediately after IgE-antigen complex stimulation and remain sufficiently activated for 5 min.

STAT6 = experiment: IL-4 induced STAT6 phosphorylation, western blot in U937, A549 and Jurkat cells; type: cell-based; conditions: PLAG 0.01 to 10 μg/ml, 10 ng/ml IL-4, 15 min
Description: (§1) Dephosphorylation of STAT6 is examined using anti-phosphorylated STAT6 in U937, A549, and Jurkat cell lysates treated with PLAG concentration from 0.01 to 10 μg/ml. Phosphorylation of STAT6 is induced by treatment with 10 ng/ml of IL-4. Dephosphorylation of STAT1 is examined in the U937 cell lysate treated with PLAG (0.01 to 10 μg/ml). Phosphorylation of STAT1 is induced by 10 ng of IFN-γ treatment. Dephosphorylation of STAT1 and STAT6 is examined at 15 min after stimulation with IFN-γ and IL-4 respectively, in the PLAG pretreated cells. […] The transcriptional activity of STAT6 is decreased by the dephosphorylation of STAT6. […] No effect of PLAG on STAT1 phosphorylation is observed.

STAT1 = experiment: IFN-γ induced STAT1 phosphorylation, western blot in U937 cells; type: cell-based; conditions: PLAG 0.01 to 10 μg/ml, 10 ng IFN-γ, 15 min
Description: as §1

Complement 3 [1] = experiment: Complement 3 activation by chemotherapeutic agents in mouse model; type: in vivo; conditions: mice, Gemcitabine, Cyclophosphamide or Tamoxifen plus PLAG
Description: The effect of PLAG for treatment of neutropenia and thrombocytopenia induced by chemotherapy (CIN) is evaluated in an animal model. Anti-cancer agents (Gemcitabine 50 mg/kg, Cyclosphosphamide 100 mg/kg, or Tamoxifen 50 mg/kg) are dosed daily for 3 weeks; PLAG is also administered 50 mg/kg daily for 3 weeks. After three weeks, neutrophils are harvested and counted with Auto Hematology Analyzer BC-5300.
It is believed that the neutropenia and thrombocytopenia of these agents and other chemotherapeutic agents may be due at least in part to a specific complement-mediated toxicity. This is seen in FIG. 6.

platelets = experiment: Phenylhydrazine-induced platelet reduction in mice; type: in vivo; conditions: PHZ 100 mg/kg i.p. + PLAG 5 mg/kg oral
Description: Mice are injected with 100 mg/kg phenylhydrazine (PHZ), i.p., to induce anemia and reduction of platelets. 5 mg/kg PLAG is administered to the mice orally and blood samples are taken at 3 and 13 days after. In addition, for comparison, normal mice which are not treated with phenylhydrazine are prepared as a normal group, and mice treated with PHZ and olive oil instead of PLAG are prepared as a control group. The blood samples taken from the mice are treated with 0.5 ml EDTA (Minicollect tube, Greiner bio-one, Austria) and concentration of platelet is measured using automated blood sample analyzer BC-6800 (Mindray, Shenzhen, China) by number of platelet per […] (k: 1,000).

monocytes = experiment: Monocyte ratio in blood of LPS-treated C57BL/6 mice; type: in vivo; conditions: C57BL/6 mouse, LPS + PLAG, ratio to total leukocytes
Description: To observe the ratio of neutrophil and lymphocyte in the blood of Balb/C mice, 1 mg/kg of lipopolysaccharide (LPS) is injected to mice, i.p. to induce inflammation. 5 mg/kg of PLAG is administered to the mice orally and blood samples are taken at 3 and 13 days after. In addition, for comparison, normal mice that are not treated with PLAG, receive PBS (phosphate buffered saline) and olive oil. The blood samples taken from the mice are treated with EDTA bottle 0.5 ml (Minocollect tube, Greiner bio-one, Austria) and the level of neutrophils (NEU) and lymphocytes (LYM) as a percentage of total leukocytes is measured using automated blood sample analyzer BC-6800 (Mindray, Shenzhen, China).
Except for using C57BL/6 mouse instead of Balb/C mouse, mice are treated in the same manner as Example 6, the monocyte ratio (Mono) to total leukocytes is measured and the results are shown in Table 5.

neutrophils = experiment: Migration of neutrophils in LPS-injected mice (blood and lymph counts); type: in vivo
Description: Mice are injected with bacterial lipopolysaccharide (LPS) to provoke an inflammatory response, in the presence or absence of PLAG: […]

Complement 3 [2] = experiment: Clinical study in healthy subjects: Complement 3 in blood; type: in vivo, human
Description: A clinical study is conducted in Gwandong University MyungJi Hospital Clinical Study Center in Republic of Korea with 27 healthy patients to study immune-modulating effect of PLAG. Volunteers are tested for 30 days in vivo as oral administer (500 mg of PLAG per day) under a legitimate clinical approval. Complement 3 is counted using C3 assay kit. The analysis result is shown in FIG. 7, and change of immunoactivity by the administration of PLAG in healthy subjects is shown in Table 8 (effect of PLAG supplementation on immune function of peripheral blood after 4-wk intervention). As shown in FIG. 7 and Table 8, the majority of those who consume PLAG for a month (twenty-six (26) subjects out of 27 patients) show decreased complement 3 (C3), while the control group, who are treated with soybean oil, show both increase and decrease of C3.

[3] = stated as known; cited from earlier work

CCCCC/C=C\C/C=C\CCCCCCCC(=O)OC(COC(C)=O)COC(=O)CCCCCCCCCCCCCCC (racemic) [PLAG, 1-palmitoyl-2-linoleoyl-3-acetylglycerol]
ERK1/2 phosphorylation (ERK1/2): down-regulated
IL-4 induced STAT6 phosphorylation (STAT6; A549 cells): inhibited with increasing PLAG concentrations
IL-4 induced STAT6 phosphorylation (STAT6; Jurkat cells): inhibited with increasing PLAG concentrations
IL-4 induced STAT6 phosphorylation (STAT6; U937 cells): inhibited with increasing PLAG concentrations
STAT1 phosphorylation (STAT1): No effect
Complement 3 activation by chemotherapeutic agents (Complement 3 [1]): largely blocked
Platelet (day 3) Conc (platelets; day 3): 1072 ± 125.4 k/ul
Platelet (day 13) Conc (platelets; day 13): 1188.8 ± 115.6 k/ul
Monocyte ratio (monocytes): 18.4 ± 6.6%
Neutrophil count in blood (neutrophils; LPS + PLAG): 3.41 k/μl
Neutrophil count in lymph (neutrophils; LPS + PLAG): 1.48 k/μl
migration of neutrophils to the lymph node (neutrophils; LPS + PLAG vs LPS only): inhibits migration
subjects showing decreased complement 3 (C3) (Complement 3 [2]; 500 mg PLAG per day oral for a month): 26 subjects out of 27
decrease of average concentration of C3 in blood (Complement 3 [2]; after administration of PLAG 500 mg per day, 30 days): about 10 mg/dL
C3, After (Complement 3 [2]; healthy subjects n = 27, 500 mg PLAG per day oral, after 4-wk intervention): 99.7 ± 12.4 mg/dL
C3, Before (Complement 3 [2]; healthy subjects n = 27, before PLAG supplementation): 109.5 ± 13.0 mg/dL
toxicity in GLP toxicity test [3]: no toxicity
